Assay results: US20090069320A1, “Substituted 4-Amino-Quinazoline Compounds with Metabotropic Glutamate Receptor Regulating Activity and Uses Thereof” (Gruenenthal GmbH, priority 2006, published 2009)

Biological target: T1, mGluR5 receptor (Sus scrofa, UniProt I3LUI7)
T1 construct: 450 μg of protein from brain homogenate with 5 nM ^3[H]-MPEP; from tissue; host or cells: pig brain halves without medulla, cerebellum and pons
Assay: [3H]-MPEP mGluR5 receptor binding assay (pig brain homogenate)
Details: 10 μM compound, 5 nM [3H]-MPEP, read-out: % Inhibition of mGluR5 Receptor (pig) [^3H]-MPEP Bond at 10 μM
Protocol: I. Method for Determining the Inhibition of the [^3H]-MPEP Bond in the mGluR5 Receptor Binding Assay
Pig brain homogenate is produced by homogenizing (Polytron PT 3000, Kinematica AG, 10 000 rpm for 90 seconds) pig brain halves without medulla, cerebellum and pons in pH 8.0 buffer (20 mM Hepes, Sigma, order no. H3375+1 complete tablet, 100 ml, Roche Diagnostics, order no. 1836145) in the ratio of 1:20 (brain weight/volume) and differential centrifuging at 900×g and 40 000×g. In incubation batches of 250 μl in 96-well microtitre plates 450 μg of protein from brain homogenate with 5 nM ^3[H]-MPEP (Tocris, order no. R1212) (MPEP=[…]) and the compounds to be examined (10 μM in test) in buffer (as above) are respectively incubated at room temperature for 60 minutes.
The batches are then filtered using a Brandel cell harvester (Brandel, Robotic 9600) on unifilter plates with fibreglass filter mats (Perkin Elmer, order no. 6005177) and then washed with buffer (as above) 3-times each with 250 μl per sample. The filter plates are then dried for 60 mins. at 55° C. Then, 30 μL of Ultima Gold™ scintillator (Packard BioScience, order no. 6013159) are added per well and after 3 hours the samples are measured on the β-counter (MicroBeta, Perkin Elmer). The non-specific binding is determined by adding 10 μM of MPEP (Tocris, order no. 1212).

T1 sequence (I3LUI7 19-1212): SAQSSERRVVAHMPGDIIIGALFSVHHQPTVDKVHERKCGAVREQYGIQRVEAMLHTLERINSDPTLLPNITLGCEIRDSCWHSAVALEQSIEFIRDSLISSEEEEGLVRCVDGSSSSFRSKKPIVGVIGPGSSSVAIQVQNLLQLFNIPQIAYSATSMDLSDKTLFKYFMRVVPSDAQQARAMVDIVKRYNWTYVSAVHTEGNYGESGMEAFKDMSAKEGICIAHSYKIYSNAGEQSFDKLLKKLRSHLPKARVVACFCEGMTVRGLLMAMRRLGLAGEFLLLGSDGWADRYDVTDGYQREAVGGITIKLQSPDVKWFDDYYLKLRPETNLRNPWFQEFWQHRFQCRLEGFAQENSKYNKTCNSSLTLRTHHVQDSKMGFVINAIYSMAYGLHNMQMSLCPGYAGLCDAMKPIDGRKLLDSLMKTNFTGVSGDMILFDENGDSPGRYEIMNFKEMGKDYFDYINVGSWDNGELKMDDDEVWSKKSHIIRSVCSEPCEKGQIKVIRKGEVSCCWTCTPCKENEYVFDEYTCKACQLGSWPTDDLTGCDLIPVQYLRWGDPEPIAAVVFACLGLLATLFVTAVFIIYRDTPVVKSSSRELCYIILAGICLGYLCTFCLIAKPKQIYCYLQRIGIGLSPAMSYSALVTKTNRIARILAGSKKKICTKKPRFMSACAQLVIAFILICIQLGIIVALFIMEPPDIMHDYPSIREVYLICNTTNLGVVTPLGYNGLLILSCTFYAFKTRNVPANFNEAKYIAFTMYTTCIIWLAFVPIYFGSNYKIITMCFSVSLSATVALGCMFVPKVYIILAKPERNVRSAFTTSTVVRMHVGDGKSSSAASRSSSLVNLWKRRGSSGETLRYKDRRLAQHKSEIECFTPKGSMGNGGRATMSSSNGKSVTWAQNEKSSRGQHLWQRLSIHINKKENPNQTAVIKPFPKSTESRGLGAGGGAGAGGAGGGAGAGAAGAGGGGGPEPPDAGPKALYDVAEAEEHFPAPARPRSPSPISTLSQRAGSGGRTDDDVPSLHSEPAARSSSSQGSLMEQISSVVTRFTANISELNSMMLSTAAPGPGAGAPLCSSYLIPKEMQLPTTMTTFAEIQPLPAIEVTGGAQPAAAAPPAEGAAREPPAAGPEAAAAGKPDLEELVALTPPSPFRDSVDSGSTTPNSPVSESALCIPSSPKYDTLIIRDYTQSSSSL

Compared with `CC(C)CN(Cc1cccc(-c2ccc3ncnc(N4CCOCC4)c3c2)c1)C(=O)c1cnccn1` [Example 13, pyrazine-2-carboxylic acid isobutyl-[3-(4-morpholin-4-yl-quinazolin-6-yl)-benzyl]-amide], `CC(C)CN(Cc1cccc(-c2ccc3ncnc(N4CCOCC4)c3c2)c1)C(=O)c1cccs1` [Example 29, thiophene-2-carboxylic acid isobutyl-[3-(4-morpholin-4-yl-quinazolin-6-yl)-benzyl]-amide] is higher in inhibition at 10 µM: 36% for the first, 46% for the second.

`Cc1ccc(C(=O)N(Cc2cccc(-c3ccc4ncnc(N5CCOCC5)c4c3)c2)CC(C)C)cc1` [Example 22, N-isobutyl-4-methyl-N-[3-(4-morpholin-4-yl-quinazolin-6-yl)-benzyl]-benzamide] and `CC(C)CN(Cc1cccc(-c2ccc3ncnc(N4CCOCC4)c3c2)c1)C(=O)CN(C)C` [Example 31, 2-dimethylamino-N-isobutyl-N-[3-(4-morpholin-4-yl-quinazolin-6-yl)-benzyl]-acetamide] are the same in inhibition at 10 µM: 32% for the first, 32% for the second.

Going from `CC(C)Nc1ncnc2ccc(-c3cccc(CN(Cc4ccccc4)C(=O)c4ccccc4)c3)cc12` [Example 36, N-benzyl-N-[3-(4-isopropylamino-quinazolin-6-yl)-benzyl]-benzamide] to `Cc1ccc(C(=O)N(Cc2ccccc2)Cc2cccc(-c3ccc4ncnc(NC(C)C)c4c3)c2)cc1` [Example 54, N-benzyl-N-[3-(4-isopropylamino-quinazolin-6-yl)-benzyl]-4-methyl-benzamide], the inhibition at 10 µM rises from 42% to 47%.

First: CC(C)Nc1ncnc2ccc(-c3cccc(CN(Cc4ccccc4)C(=O)c4ccc(C#N)cc4)c3)cc12 [Example 44, N-benzyl-4-cyano-N-[3-(4-isopropylamino-quinazolin-6-yl)-benzyl]-benzamide]
Second: CC(C)Nc1ncnc2ccc(-c3cccc(CN(Cc4ccccc4)C(=O)c4ccsc4)c3)cc12 [Example 50, thiophene-3-carboxylic acid benzyl-[3-(4-isopropylamino-quinazolin-6-yl)-benzyl]-amide]
The inhibition at 10 µM of the first is higher: 37% for the first, 30% for the second.

`CC(C)Nc1ncnc2ccc(-c3cccc(CN(Cc4ccccc4)C(=O)c4cnccn4)c3)cc12` [Example 45, pyrazine-2-carboxylic acid benzyl-[3-(4-isopropylamino-quinazolin-6-yl)-benzyl]-amide] and `CCCN(Cc1cccc(-c2ccc3ncnc(Nc4ccccc4)c3c2)c1)C(=O)c1cnccn1` [Example 104, pyrazine-2-carboxylic acid [3-(4-phenylamino-quinazolin-6-yl)-benzyl]-propyl-amide] are the same in inhibition at 10 µM: 48% for the first, 48% for the second.

First: CC(C)Nc1ncnc2ccc(-c3cccc(CN(Cc4ccccc4)C(=O)CC#N)c3)cc12 [Example 53, N-benzyl-2-cyano-N-[3-(4-isopropylamino-quinazolin-6-yl)-benzyl]-acetamide]
Second: CCCN(Cc1cccc(-c2ccc3ncnc(Nc4ccccc4)c3c2)c1)C(=O)c1ccc(C)cc1 [Example 91, 4-methyl-N-[3-(4-phenylamino-quinazolin-6-yl)-benzyl]-N-propyl-benzamide]
The inhibition at 10 µM of the first is lower: 38% for the first, 54% for the second.

Going from `CCN(CC)c1ncnc2ccc(-c3cccc(CN(C)C(=O)C=Cc4ccccc4)c3)cc12` [Example 62, N-[3-(4-diethylamino-quinazolin-6-yl)-benzyl]-N-methyl-3-phenyl-acrylamide] to `CCN(CC)c1ncnc2ccc(-c3cccc(CN(C)C(=O)Cc4ccccn4)c3)cc12` [Example 68, N-[3-(4-diethylamino-quinazolin-6-yl)-benzyl]-N-methyl-2-pyridin-2-yl-acetamide], the inhibition at 10 µM falls from 43% to 30%.

Going from `CCN(CC)c1ncnc2ccc(-c3cccc(CN(C)C(=O)c4cccc(C#N)c4)c3)cc12` [Example 69, 3-cyano-N-[3-(4-diethylamino-quinazolin-6-yl)-benzyl]-N-methyl-benzamide] to `CCN(CC)c1ncnc2ccc(-c3cccc(CN(C)C(=O)c4ccc(C)cc4)c3)cc12` [Example 75, N-[3-(4-diethylamino-quinazolin-6-yl)-benzyl]-4,N-dimethyl-benzamide], the inhibition at 10 µM falls from 38% to 32%.

Compared with `CCN(CC)c1ncnc2ccc(-c3cccc(CN(C)C(=O)c4ccsc4)c3)cc12` [Example 70, thiophene-3-carboxylic acid [3-(4-diethylamino-quinazolin-6-yl)-benzyl]-methyl-amide], `CCCN(Cc1cccc(-c2ccc3ncnc(Nc4ccccc4)c3c2)c1)C(=O)c1ccsc1` [Example 108, thiophene-3-carboxylic acid [3-(4-phenylamino-quinazolin-6-yl)-benzyl]-propyl-amide] is lower in inhibition at 10 µM: 34% for the first, 31% for the second.

Compared with `CCCN(Cc1cccc(-c2ccc3ncnc(Nc4ccccc4)c3c2)c1)C(=O)c1ccccc1` [Example 89, N-[3-(4-phenylamino-quinazolin-6-yl)-benzyl]-N-propyl-benzamide], `CCCN(Cc1cccc(-c2ccc3ncnc(Nc4ccccc4)c3c2)c1)C(=O)c1ccncc1` [Example 92, N-[3-(4-phenylamino-quinazolin-6-yl)-benzyl]-N-propyl-isonicotinamide] is higher in inhibition at 10 µM: 52% for the first, 74% for the second.

Compared with `CCCN(Cc1cccc(-c2ccc3ncnc(Nc4ccccc4)c3c2)c1)C(=O)COc1ccccc1` [Example 90, 2-phenoxy-N-[3-(4-phenylamino-quinazolin-6-yl)-benzyl]-N-propyl-acetamide], `CCCN(Cc1cccc(-c2ccc3ncnc(Nc4ccccc4)c3c2)c1)C(=O)Cc1ccccn1` [Example 106, N-[3-(4-phenylamino-quinazolin-6-yl)-benzyl]-N-propyl-2-pyridin-2-yl-acetamide] is lower in inhibition at 10 µM: 44% for the first, 39% for the second.

Going from `CCCN(Cc1cccc(-c2ccc3ncnc(Nc4ccccc4)c3c2)c1)C(=O)c1ccc(C(F)(F)F)cc1F` [Example 93, 2-fluoro-N-[3-(4-phenylamino-quinazolin-6-yl)-benzyl]-N-propyl-4-trifluoromethyl-benzamide] to `CCCN(Cc1cccc(-c2ccc3ncnc(Nc4ccccc4)c3c2)c1)C(=O)c1ccc(O)nc1` [Example 111, 6-hydroxy-N-[3-(4-phenylamino-quinazolin-6-yl)-benzyl]-N-propyl-nicotinamide], the inhibition at 10 µM rises from 38% to 46%.

First: CCCN(Cc1cccc(-c2ccc3ncnc(Nc4ccccc4)c3c2)c1)C(=O)c1ccc(OC)cc1 [Example 94, 4-methoxy-N-[3-(4-phenylamino-quinazolin-6-yl)-benzyl]-N-propyl-benzamide]
Second: CCCN(Cc1cccc(-c2ccc3ncnc(Nc4ccccc4)c3c2)c1)C(=O)c1sccc1C [Example 110, 3-methyl-thiophene-2-carboxylic acid [3-(4-phenylamino-quinazolin-6-yl)-benzyl]-propyl-amide]
The inhibition at 10 µM of the first is higher: 75% for the first, 43% for the second.

Going from `CCCN(Cc1cccc(-c2ccc3ncnc(Nc4ccccc4)c3c2)c1)C(=O)c1ccccn1` [Example 95, pyridine-2-carboxylic acid [3-(4-phenylamino-quinazolin-6-yl)-benzyl]-propyl-amide] to `CCCN(Cc1cccc(-c2ccc3ncnc(Nc4ccccc4)c3c2)c1)C(=O)c1cc2ccccc2cn1` [Example 100, isoquinoline-3-carboxylic acid [3-(4-phenylamino-quinazolin-6-yl)-benzyl]-propyl-amide], the inhibition at 10 µM falls from 61% to 36%.
